US10300048B2, “Thiazolidinones as cellular anandamide uptake inhibitors and their use in the treatment of psychiatric or neurological disorders and inflammation, in particular neuroinflammation” (UNIVERSITAT BERN, priority 2014, dated 2019)
Read-outs that look alike come from different tables or passages of the source.

How the values were obtained:
[1] = target: FAAH (Homo sapiens (Human), UniProt O00519); experiment: FAAH activity: hydrolysis of [3H]-AEA in U937 cell homogenates; assay type: biochemical; conditions: for IC50: U937 cell homogenate, read-out: FAAH inhibition IC50
Method: Hydrolysis of [^3H]-AEA by FAAH was determined as previously described in cell homogenates of U937 cells (0.18 mg protein) (Omeir et al., 1999, Biochem Biophys Res Commun, 264, 316-20; Mor et al., 2004, J Med Chem, 47, 4998-5008). Protein amounts of cell homogenates corresponded to 0.5×10^6 cells (U937), to assure best possible comparability of IC50 values as used for the AEA cellular uptake assays. URB597 was used as positive control. Protein quantification was performed using a BCA assay (Thermo Scientific). Enzyme activity was assessed by addition of vehicle or compounds in 10 μL DMSO to 490 μL homogenate in 10 mM Tris HCl, 1 mM EDTA, 0.1% (w/v) BSA fatty acid free, pH=8 and incubation for 15 min at 37° C. After, a mixture of AEA plus [ethanolamine-1-^3H]-AEA (0.5 nM) at final 100 nM was added to the homogenates and incubated for 15 min at 37° C. The reaction was stopped by addition of 1 mL ice-cold CHCl3:MeOH (1:1) followed by vigorous vortexing. Phase separation was achieved by centrifugation at 10′000×g at 4° C. for 10 min. Radioactivity of the separated aqueous phase (upper phase) containing [^3H-ethanolamine] or [^3H-glycerol] was measured by liquid scintillation counting on a Tri-Carb 2100 TR liquid scintillation analyzer after addition of 3.5 mL Ultima Gold scintillation cocktail (PerkinElmer Life Sciences). Results are expressed as hydrolysis of tritium substrate in percent of vehicle treated control. IC50 values were calculated by GraphPad®. Data are reported as means of n=3 independent experiments performed in triplicates.
(§1) Statistical analysis and IC50 values were determined using GraphPad® Prism 5.0 (GraphPad® Software, San Diego, Calif., US). Inhibition curves were obtained by non-linear regression using the built-in log(inhibitor) vs. response-variable slope (four parameters) function. Results were calculated as % of vehicle control of the corresponding fraction (cells, aqueous phase) if not mentioned else. In vivo results are shown in absolute values and were analyzed by a one-way ANOVA following a Tukey's multiple comparison test or student's t-test. If not indicated else the results were compared vs. vehicle (CTRL). *** P<0.001, ** P<0.01, * P<0.05, ns=not significant P>0.05.

[2] = system: AEA cellular uptake, U937 cells; experiment: [3H]-AEA cellular uptake inhibition in U937 cells; assay type: cell-based; conditions: for IC50: U937 cells
Method: [^3H]-AEA Cellular Uptake
Screening for AEA cellular uptake inhibition was performed in a semi-automated procedure: Pipetting and washing steps were performed by a Biomek3000 laboratory workstation. First, required amounts of U937 cells were centrifuged at 100×g for 5 min and resuspended in RPMI (37° C.) to a final concentration of 2×10^6 cells/mL. Then, 250 μL of cell suspension (0.5×10^6 cells per sample) were transferred into AquaSil™ silanized glass vials (Chromacol 1.1-MTV) in 96-well format. After addition of 5 μL vehicle (DMSO) or compounds the cells were incubated at 37° C. for 15 min. As positive controls OMDM-2 and UCM707 were used at 10 μM in each run. The ETI-T compounds were measured at up to 7 concentrations in triplicates from 100 pM-100 μM. After pre-incubation, a mixture of 0.5 nM[ethanolamine-1-^3H]-AEA, (60 Ci/mmol) and 99.5 nM of cold AEA (final 100 nM) was added and samples were incubated at 37° C. for another 15 min. The reaction was stopped by rapid filtration over UniFilter-96 GF/C filters (PerkinElmer) pre-soaked with PBS 0.25% BSA. Cells were washed three times with 100 μL ice-cold PBS buffer containing 1% fatty acid free BSA. After drying, 45 μL MicroScint 20 scintillation cocktail (PerkinElmer, Waltham, Mass., US) was added to the wells and the plate was sealed. Radioactivity was measured by liquid scintillation counting on a PerkinElmer Wallac Trilux MicroBeta 1450 during 2 min. Non-specific binding of [^3H]AEA (100 nM) to the glass vials was never higher than 10%. IC50 values were calculated by GraphPad® by non-linear regression using the built-in log(inhibitor) vs. response-variable slope (four parameters) function.
as §1

[3] = target: hCB1 receptor (Homo sapiens (Human), UniProt P21554); experiment: Radioligand CB receptor binding, [3H]-CP55,940 displacement on CHO-K1 hCB1 membranes; conditions: for CB1 receptor binding % binding at 10 μM: Table 3; for CB1 receptor binding (%) at 10 µM: Table 4
Method: Stably transfected CHO-K1 cells expressing hCB1 or hCB2 receptors (Gertsch et al., 2008, Proc Natl Acad Sci 105, 9099-104) were cultured in T150 cm^2 flasks up to 90% confluence. The medium was removed and cells were washed twice with PBS, 37° C. 10 mL of PBS was added and the cells were scraped and transferred into a falcon tube following homogenization by a Polytron PT1300D for 5 min at 30 krpm. Then, the homogenate was centrifuged (1400×g, 5 min) to remove debris. The supernatant was subjected to ultracentrifugation (64000×g, 45 min, 4° C.) to separate cytosolic from the membrane fraction. The supernatant was discharged and the pellet resuspended in PBS by sonication. Protein quantity was determined by BCA assay (Thermo Scientific) and aliquots of 500 μL were stored at −80° C. until use.
Radioligand CB Receptor Binding
Binding properties of ETI-T compounds to hCB1 or hCB2 receptors were performed as previously reported in a [^3H]-CP55,940 displacement assay (Gertsch et al., 2008, Proc Natl Acad Sci 105, 9099-104). WIN 55,212-2 was used as positive control. In brief, 20 μg protein of CHO-K1 hCB1 or hCB2 membrane preparations were thawed on ice and resuspended in a final volume of 500 μL binding buffer (50 mM Tris-HCl, 2.5 mM EDTA, 5 mM MgCl2, 0.5% fatty acid free BSA, pH 7.4) in silanized glass vials. [^3H]-CP55,940 (168 Ci/mmol) (PerkinElmer, Waltham, Mass., US) was added to a final concentration of 0.5 nM followed by the addition of competitors or vehicle in 5 μL DMSO. Membrane binding was equilibrated for 2 h at room temperature (25° C.). Samples were filter through a 0.1% polyethylenimine pre-soaked UniFilter®-96 GF/B plate (PerkinElmer) and washed twelve times with 167 μL ice-cold assay-buffer. The plate was dried, bottom sealed and 45 μL MicroScint 20 scintillation cocktail (PerkinElmer) were added before measured on a PerkinElmer 1450 Microbeta TRILUX liquid scintillation counter. Unspecific binding was determined by WIN 55,212-2, 10 μM and subtracted from all values. […].

[4] = Homo sapiens, U-937, Table 1, 100 nM AEA, read-out: AEA uptake inhibition IC50
[5] = Homo sapiens, U-937, Table 4, read-out: AEA uptake IC50

Sequence of FAAH (O00519 whole entry): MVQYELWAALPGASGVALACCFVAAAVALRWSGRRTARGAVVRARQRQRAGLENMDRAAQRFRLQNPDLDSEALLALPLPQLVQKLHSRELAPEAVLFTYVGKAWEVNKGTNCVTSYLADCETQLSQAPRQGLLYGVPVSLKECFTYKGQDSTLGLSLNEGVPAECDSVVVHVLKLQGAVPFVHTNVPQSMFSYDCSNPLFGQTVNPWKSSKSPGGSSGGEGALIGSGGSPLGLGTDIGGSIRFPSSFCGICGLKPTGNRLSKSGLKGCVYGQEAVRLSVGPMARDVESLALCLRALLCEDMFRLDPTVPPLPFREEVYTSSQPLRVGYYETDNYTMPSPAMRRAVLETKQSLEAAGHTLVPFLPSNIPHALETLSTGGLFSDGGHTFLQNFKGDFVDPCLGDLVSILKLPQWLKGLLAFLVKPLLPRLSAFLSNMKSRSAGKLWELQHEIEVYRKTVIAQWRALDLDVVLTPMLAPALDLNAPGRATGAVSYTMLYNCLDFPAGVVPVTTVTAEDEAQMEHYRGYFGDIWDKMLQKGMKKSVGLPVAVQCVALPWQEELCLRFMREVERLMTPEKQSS
Sequence of hCB1 receptor (P21554 whole entry): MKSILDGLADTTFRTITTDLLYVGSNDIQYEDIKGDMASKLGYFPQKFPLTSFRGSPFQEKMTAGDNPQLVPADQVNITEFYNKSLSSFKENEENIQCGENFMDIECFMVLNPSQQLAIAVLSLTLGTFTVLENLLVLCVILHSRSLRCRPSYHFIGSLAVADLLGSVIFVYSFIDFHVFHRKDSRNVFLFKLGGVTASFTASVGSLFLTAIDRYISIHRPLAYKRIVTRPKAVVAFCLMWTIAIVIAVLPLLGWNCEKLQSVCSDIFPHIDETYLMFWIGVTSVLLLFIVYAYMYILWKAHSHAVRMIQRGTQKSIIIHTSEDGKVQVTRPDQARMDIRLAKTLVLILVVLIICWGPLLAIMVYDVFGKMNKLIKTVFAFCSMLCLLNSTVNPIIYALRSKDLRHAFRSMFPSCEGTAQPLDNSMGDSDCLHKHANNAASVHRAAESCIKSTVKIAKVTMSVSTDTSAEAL

SMILES | IC50 [2, 4] [nM] | IC50 [2, 5] [nM] | further results
CCOc1cc(/C=C2\S/C(=N\c3ccc(C)cc3)N(c3ccc(C)cc3)C2=O)ccc1O [Compound 12] | 484 | 484 | IC50 ([1]; Table 2): > 100 µM; CB1 receptor binding % binding at 10 μM [3]: 35%; CB1 receptor binding (%) at 10 µM [3]: 35%
C#CCOc1ccc(/C=C2\S/C(=N\c3ccc(OC)cc3)N(CCc3c[nH]c4ccccc34)C2=O)cc1 [Compound 7] | 266 | 266 | 
Cc1ccc(/N=C2\S/C(=C\c3ccc(O)cc3)C(=O)N2c2ccc(C)cc2)cc1 [Compound 1] | 68 | 68 | CB1 receptor binding (%) at 10 µM [3]: 33%
CCOc1cc(/C=C2\S/C(=N\c3ccc(F)cc3)N(c3ccc(F)cc3)C2=O)ccc1O [Compound 2] | 74 | 74 | FAAH inhibition (in words) [1]: Lack of FAAH inhibition; IC50 ([1]; Table 2): 56.2 µM; IC50 ([1]; Table 4): 56.2 µM; apparent selectivity for AEA uptake inhibition over FAAH inhibition ([2]; ratio of FAAH IC50 to AEA uptake IC50): ~760 fold; CB1 receptor binding % binding at 10 μM [3]: 33%; CB1 receptor binding (%) at 10 µM [3]: 33%
Cc1ccc(/N=C2\S/C(=C\c3ccc(O)c(Cl)c3)C(=O)N2c2ccc(C)cc2)cc1 [ETI-T-444] |  | 1150 | 
CCN1C(=O)/C(=C/c2ccc(O)cc2)S/C1=N\c1ccc(F)cc1 [Compound 8] | 268 | 268 | 
CCOc1cc(/C=C2/S/C(=N/c3ccc(OC)cc3)N(c3ccc(OC)cc3)C2=O)ccc1O [ETI-T-445] |  | 1050 | 
COc1cc(/C=C2\S/C(=N\c3ccc(C)cc3)N(c3ccc(C)cc3)C2=O)ccc1O [ETI-T-008 Jspg] |  | 1250 | IC50 ([1]; Table 4): 5.37 µM
Cc1ccsc1/C=C1\S/C(=N\c2ccccc2)N(C(C)C)C1=O [Compound 13] | 510 | 510 | 
C=CCCc1cc(/C=C2\SC(=NCC)N(CC)C2=O)cc(OCC)c1O [Compound 4] | 145 | 145 | 
CCOc1cc(/C=C2\S/C(=N\c3cc(Cl)ccc3C)NC2=O)ccc1O [Compound 3] |  |  | IC50 ([2]; Table 1, 100 nM AEA, read-out: AEA uptake inhibition IC50): 138 nM
CCCN1C(=O)/C(=C/c2ccc3c(c2)OCO3)S/C1=N\c1ccc(OC)cc1 [ETI-T-426] |  | 1460 | CB1 receptor binding (%) at 10 µM [3]: 60%
CCN1C(=O)/C(=C/c2cc(I)c(O)c(OC)c2)S/C1=N\c1ccccc1 [Compound 17] | 594 | 594 | 
CCOc1cc(/C=C2/S/C(=N\c3ccc(C)c(Cl)c3)N(c3ccc(C)c(Cl)c3)C2=O)ccc1O [ETI-T-435] |  | 1430 | 
CCN1C(=O)/C(=C/c2ccc(C)cc2)S/C1=N\c1ccc(OC)cc1 [Compound 9] | 334 | 334 | 
CCOc1cc(/C=C2/S/C(=N/c3ccc(F)cc3)N(c3ccc(F)cc3)C2=O)ccc1O [ETI-T-438] |  | 1350 | 
Cc1ccc(/N=C2\S/C(=C\c3ccc(O)c(Cl)c3)C(=O)N2c2ccc(C)c(Cl)c2)cc1Cl [Compound 21] | 798 | 798 | IC50 ([1]; Table 4): 58.9 µM; CB1 receptor binding (%) at 10 µM [3]: 45%
CN(C)c1ccc(/C=C2\S/C(=N\c3ccccc3)N(C3CCCCC3)C2=O)cc1 [ETI-T-385] |  | 1080 | IC50 ([1]; Table 4): 0.985 µM; CB1 receptor binding (%) at 10 µM [3]: 40%
COc1ccc(C=C2SC(=Nc3ccc(F)cc3)N(c3ccc(F)cc3)C2=O)cc1OC [ETI-T-343] |  | 1590 | 
COc1ccc(/C=C2\S/C(=N\c3ccccc3)N(c3ccccc3)C2=O)cc1 [Compound 14] | 542 | 542 | 
CCCCN1C(=O)/C(=C/c2cc(Br)c(O)c(OCC)c2)S/C1=N\c1ccccc1 [ETI-T-401] |  | 1580 | CB1 receptor binding (%) at 10 µM [3]: 42%
C=CCc1cc(/C=C2\S/C(=N\c3ccccc3)N(Cc3ccco3)C2=O)cc(OC)c1O [Compound 20] | 661 | 661 | 
COc1ccc(/N=C2\S/C(=C\c3ccc(O)cc3)C(=O)N2c2ccc(OC)cc2)cc1 [Compound 18] | 597 | 597 | 
C=CCc1cc(/C=C2/S/C(=N/c3ccc(C)cc3)N(C)C2=O)cc(OCC)c1O [ETI-T-399] |  | 1320 | CB1 receptor binding (%) at 10 µM [3]: 41%
COc1ccc(/C=C2\S/C(=N\c3ccc(C)cc3)N(c3ccc(C)cc3)C2=O)cc1 [Compound 19] | 602 | 602 | 
O=C1/C(=C/c2ccc(O)cc2)S/C(=N\c2ccccc2)N1Cc1ccco1 [Compound 11] | 434 | 434 | 
CCOc1cc(/C=C2\S/C(=N\c3ccccc3)N(CCOC)C2=O)ccc1O [ETI-T-410] |  | 1300 | 
CCCOc1cc(/C=C2\S/C(=N\c3ccccc3C)N(c3ccccc3C)C2=O)ccc1O [Compound 15] | 553 | 553 | 
